According to patent US20240382438A1, “Calcium Channel Blockers and Methods Thereof” (University of Maryland, Eastern Shore, priority 2023, published 2024):
“Also recorded” adds a separate entry of the source.

Tests used:
[1] = biological target: T1, human Cav3.2 (Homo sapiens, UniProt O95180); assay: Whole-cell patch clamp of T-type Ca2+ currents in Cav3.2-stable transfected HEK 293 cells; type: cell-based; settings: for Effect on whole cell capacitance / Effect on T-type Ca2+ current density: 50 μM; for Effect on T-type Ca2+ current density: vs non-treated cells
T1 construct: host or cells: HEK 293
T1 sequence (O95180 whole entry): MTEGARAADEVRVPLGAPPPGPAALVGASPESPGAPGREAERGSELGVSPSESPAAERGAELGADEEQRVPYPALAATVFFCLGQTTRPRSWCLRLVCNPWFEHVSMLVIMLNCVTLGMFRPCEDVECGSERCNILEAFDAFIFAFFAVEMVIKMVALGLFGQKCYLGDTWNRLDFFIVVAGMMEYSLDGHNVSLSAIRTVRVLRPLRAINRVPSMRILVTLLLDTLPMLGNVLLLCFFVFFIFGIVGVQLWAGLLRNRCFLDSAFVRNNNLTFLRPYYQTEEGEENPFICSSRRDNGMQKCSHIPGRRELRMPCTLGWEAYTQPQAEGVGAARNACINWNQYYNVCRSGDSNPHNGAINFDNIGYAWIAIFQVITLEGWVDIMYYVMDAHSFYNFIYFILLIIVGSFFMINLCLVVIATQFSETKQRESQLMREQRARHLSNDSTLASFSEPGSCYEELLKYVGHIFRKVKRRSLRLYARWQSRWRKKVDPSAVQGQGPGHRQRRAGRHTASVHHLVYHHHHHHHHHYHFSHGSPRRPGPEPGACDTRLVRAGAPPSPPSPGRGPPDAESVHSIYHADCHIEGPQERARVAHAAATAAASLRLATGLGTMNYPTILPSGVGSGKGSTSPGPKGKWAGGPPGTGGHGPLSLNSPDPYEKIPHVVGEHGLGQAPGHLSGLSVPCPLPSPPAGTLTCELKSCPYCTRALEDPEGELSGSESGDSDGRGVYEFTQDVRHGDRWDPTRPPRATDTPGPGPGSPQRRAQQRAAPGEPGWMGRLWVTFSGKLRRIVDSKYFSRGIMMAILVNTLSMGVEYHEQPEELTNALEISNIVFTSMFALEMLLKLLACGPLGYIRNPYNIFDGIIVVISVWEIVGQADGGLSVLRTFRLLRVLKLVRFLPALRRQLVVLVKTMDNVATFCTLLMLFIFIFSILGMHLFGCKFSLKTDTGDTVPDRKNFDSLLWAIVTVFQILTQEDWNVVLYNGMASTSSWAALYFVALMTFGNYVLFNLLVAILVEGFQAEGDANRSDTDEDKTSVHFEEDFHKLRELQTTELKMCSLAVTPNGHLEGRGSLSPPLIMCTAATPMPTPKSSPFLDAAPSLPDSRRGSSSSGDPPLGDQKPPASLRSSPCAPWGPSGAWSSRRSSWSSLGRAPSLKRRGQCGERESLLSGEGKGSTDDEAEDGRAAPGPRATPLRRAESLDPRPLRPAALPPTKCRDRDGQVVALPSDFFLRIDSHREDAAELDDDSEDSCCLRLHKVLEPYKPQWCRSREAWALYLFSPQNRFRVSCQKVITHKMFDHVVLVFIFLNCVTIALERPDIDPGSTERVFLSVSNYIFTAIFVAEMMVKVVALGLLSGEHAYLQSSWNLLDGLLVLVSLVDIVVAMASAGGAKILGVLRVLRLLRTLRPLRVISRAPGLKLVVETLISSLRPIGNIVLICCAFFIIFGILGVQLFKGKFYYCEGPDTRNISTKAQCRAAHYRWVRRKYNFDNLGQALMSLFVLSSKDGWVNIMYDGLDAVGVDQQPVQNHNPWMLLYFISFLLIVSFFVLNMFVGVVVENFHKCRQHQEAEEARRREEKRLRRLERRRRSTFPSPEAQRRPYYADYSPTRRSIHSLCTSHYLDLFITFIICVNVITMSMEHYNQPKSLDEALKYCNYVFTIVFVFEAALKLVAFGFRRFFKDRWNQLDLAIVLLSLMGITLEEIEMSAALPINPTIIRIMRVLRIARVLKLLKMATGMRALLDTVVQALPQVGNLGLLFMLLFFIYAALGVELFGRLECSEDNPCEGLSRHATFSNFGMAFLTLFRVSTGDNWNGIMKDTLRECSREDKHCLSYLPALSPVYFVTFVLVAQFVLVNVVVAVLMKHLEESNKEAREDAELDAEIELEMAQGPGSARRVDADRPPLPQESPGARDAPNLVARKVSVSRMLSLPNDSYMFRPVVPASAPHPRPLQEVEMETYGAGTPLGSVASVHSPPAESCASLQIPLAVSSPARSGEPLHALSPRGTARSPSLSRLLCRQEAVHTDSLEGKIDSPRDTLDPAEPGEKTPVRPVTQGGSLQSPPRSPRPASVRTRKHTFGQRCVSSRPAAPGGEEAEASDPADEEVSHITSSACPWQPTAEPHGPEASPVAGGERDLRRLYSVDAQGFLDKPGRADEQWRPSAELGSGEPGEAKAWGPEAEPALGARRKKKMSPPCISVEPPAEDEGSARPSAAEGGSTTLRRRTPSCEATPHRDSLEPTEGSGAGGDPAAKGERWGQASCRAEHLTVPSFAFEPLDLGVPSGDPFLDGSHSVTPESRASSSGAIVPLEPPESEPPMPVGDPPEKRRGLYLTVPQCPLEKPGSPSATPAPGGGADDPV
Experimental: Certain exemplary embodiments have undergone target identification studies to discover a better officious T-type calcium blocker. The fourteen trifluoromethylated N-benzamide enaminone compounds were synthesized, purified, and structure confirmed using gas chromatography/mass spectroscopy, nuclear magnetic resonance, and elemental analysis. Preliminary in vitro whole cell patch clamp experiments were performed to assess the inhibitory effects of several target analogs on voltage-activated calcium currents in human embryonic kidney (HEK-293) cells. Cav3.2 transfected HEK 293 cells were treated with 50 μM of test compounds and compared to the control group (none pretreated HEK 293 cells).
(§1) ND7/23 cells are derived from the fusion of mouse neuroblastoma and rat dorsal root ganglion cells, which generates a more homogeneous sensory neuron-like cell population. ND7/23 cells were purchased from Sigma-Aldrich (RRID:CVCL_4259). Culture and differentiation of ND7/23 cells was performed as previously described. Briefly, ND7/23 cells were cultured in DMEM/F12 culture media (Millipore, Cat. #DF-041-B), supplemented with 0.5% fetal bovine serum (Invitrogen, Cat. #10437010), db-cAMP (1 mM, Sigma-Aldrich, Cat. #D0627), and nerve growth factor (NGF, 50 ng/mL, Sigma-Aldrich, Ca. #N2513). To remove any proliferating cells, cultures were treated with uridine (20 μM, Sigma-Aldrich, Cat. #U3003) and fluorodeoxyuridine (20 μM, Sigma-Aldrich, Cat. #F0503). Cells were maintained in differentiation media without uridine and fluorodeoxyuridin after induction of differentiation. ND7/23 cells were maintained in differentiation media for ≤6 days. HEK 293 cells that were stabled transfected with the human Cav3.2 and Cav3.3 channel subunits were a gift of Dr. E. Perez-Reyes (University of Virginia). Cav3.2 (or Cav3.3)-stabled transfected HEK 293 cells were culture in DMEM/F12 culture media, supplemented with 5% fetal bovine serum, 50 U/mL penicillin and 50 μg/mL streptomycin. ND7/23 and HEK 293 cells were grown in an incubator at 37° C. in the presence of 5% CO2/95% air humidified atmosphere. Cells passaged less than 20 times were used in this work. Cells were grown in poly-D-lysine-coated glass coverslips for electrophysiological recordings.
Whole cell recordings were performed as previously described. A Nikon Eclipse Ti inverted microscope equipped with Hoffman optics and epifluorescence filters was used to visualize individual cells. Recordings were performed at room temperature (22-24° C.) using glass electrodes made from thin wall borosilicate glass (3-5 MΩ). For electrophysiological recordings of inward Ca^2+ currents, outward K^+ currents were eliminated by equimolar substitution of K^+ with Cs^+ in the pipette solution, whereas inward Na^+ currents were eliminated by the use of TEA ions in the external solution, which are unable to go through voltage-gated Na^+ channels. The pipette solution consisted of (in mM) CsCl (120), MgCl2(2), HEPES (10), EGTA (10), ATP (1), and GTP (0.1), pH 7.4 with CsOH. The composition of the normal external saline used for measurements of Ca^2+ currents was (in mM): tetraethylammonium chloride (TEACl, 145), CaCl2 (10), MgCl2(1), HEPES (10), and glucose (5), pH 7.4 adjusted with CsOH. Ca^2+ currents were generated by applying a 200-500 ms-depolarizing step to various potentials from a holding potential of −100 mV. The external solution used to measure Na^+ currents contained (in mM) NaCl (145), KCl (5.3), CaCl2 (0.5), MgCl2 (5.7), HEPES (13), and glucose (5), pH 7.4 adjusted with KOH. The composition of the CsCl-pipette solution used to record Na^+ currents was the same describe above. Na^+ currents were generated by applying a 20 ms-depolarizing step to various potentials from a holding potential of −100 mV. To assess drug-evoked changes on specific ionic conductances, current amplitudes were expressed as current densities as previously reported. […]

[2] = test system: LNCaP prostate cancer cells; assay: XTT cell viability assay; type: cell-based; settings: 50 μM, 48 hours
Description: FIG. 15. Effect of RHB121, RHB62, and RHB95 on the cell viability of LNCaP prostate cancer cells. […] Cell viability was expressed as a percent of control LNCaP cells that received no treatment. Control groups were arbitrarily assigned a 100% viability value.
To assess the effect of RHB62, RHB95, and RHB121 on cell viability, the XTT assay was used.

[3] = test system: differentiated ND7/23 cells; assay: Intracellular calcium signals in differentiated ND7/23 cells stimulated with KCl or ionomycin; type: cell-based, mouse neuroblastoma and rat dorsal root ganglion cells
Experimental: FIGS. 14A-C. Effect of RHB121 on the intracellular calcium signals generated in differentiated ND7/23 cells following stimulation with 30 mM extracellular K+ ions or the calcium ionophore ionomycin (10 μM). FIG. 14A. […] FIG. 14B. […] FIG. 14C. Relative changes in the intracellular calcium signal generated in differentiated ND7/23 cells by 30 mM KCl or Ionomycin (10 μM) in control or RHB121-treated cells. Control groups were arbitrarily assigned a 100% intracellular calcium signal.
To assess the effect of RHB121 on intracellular calcium signals, differentiated ND7/23 cells with a high potassium concentration (30 mM KCl) were simulated. The effect of the calcium ionophore Ionomycin, which also can increase intracellular calcium by a different mechanism, independently of T-type Ca^2+ channel activation, was also tested. Stimulation of differentiated ND7/23 with 30 mM KCl external solution caused a small increase in the intracellular calcium signal (FIG. 14A).

[4] = test system: voltage-activated Na^+ channels; assay: Whole-cell recording of Na+ currents in differentiated ND7/23 cells; type: cell-based, mouse neuroblastoma and rat dorsal root ganglion cells; settings: 50 μM
Experimental: as §1
Whole cell recordings were performed as previously described. A Nikon Eclipse Ti inverted microscope equipped with Hoffman optics and epifluorescence filters was used to visualize individual cells. Recordings were performed at room temperature (22-24° C.) using glass electrodes made from thin wall borosilicate glass (3-5 MΩ). For electrophysiological recordings of inward Ca^2+ currents, outward K^+ currents were eliminated by equimolar substitution of K^+ with Cs^+ in the pipette solution, whereas inward Na^+ currents were eliminated by the use of TEA ions in the external solution, which are unable to go through voltage-gated Na^+ channels. […] To assess drug-evoked changes on specific ionic conductances, current amplitudes were expressed as current densities as previously reported. […] Cell capacitance was determined by integrating the transient current evoked by a 10-mV voltage step from a holding potential of −60 mV.
A MULTICLAMP 700A amplifier and PCLAMP software (Axon Instruments) was used to deliver voltage commands and to perform data acquisition and analysis. […] Only cells with stable seals and series resistance (≤10 MΩ) were analyzed. […]

SMILES | Effect on whole cell capacitance ([1]; HEK 293-Cav3.2 cells) | Effect on T-type Ca2+ current density ([1]; HEK 293-Cav3.2 cells) | Effect on T-type Ca2+ current density ([1]; HEK 293-Cav3.2 cells, listed as RHB-95) | Effect on cell viability (XTT assay) [2] | Change in intracellular calcium signal on stimulation ([3]; 10 μM, control cells) | Effect on Na+ current density [4] | Effect on activation time constant (τ) ([1]; 10 μM) | Shift of the steady-state inactivation curve ([1]; 10 μM) | Effect on whole cell capacitance ([1]; HEK 293-Cav3.2 cells, listed as RHB 121) | inhibition at 50 µM ([1]; HEK293, 50 μM, Cav3.2 transfected HEK 293 cells, read-out: Inhibition of calcium currents on T-type calcium channels) | Concentration dependence of the inhibition of T-type Ca2+ currents ([1]; HEK 293-Cav3.2 cells) | Effect on intracellular calcium signal evoked with 30 mM KCl ([3]; 50 μM pre-treatment) | Effect on intracellular calcium signal evoked with Ionomycin (10 μM) ([3]; 50 μM pre-treatment)
O=C1C=C(NC(=O)c2cccc(C(F)(F)F)c2)CC(C(F)(F)F)C1 (stereo not shown) [RHB95] | no significant changes; also recorded: no effect on cell capacitance | significant reduction | No inhibitory effect | do not affect the cell viability; also recorded: no effect on the cell viability |  |  |  |  |  |  |  |  | 
Cc1cc(C)cc(C(=O)NC2=CC(=O)CC(C(F)(F)F)C2)c1 (stereo not shown) [RHB62] | no significant changes; also recorded: no effect on cell capacitance | significant reduction; also recorded: reduction in the Ca^+2 current, with lower potency than RHB-77 |  | do not affect the cell viability; also recorded: no effect on the cell viability |  |  |  |  |  |  |  |  | 
C[C@H](CCC(=O)O)C[C@H](C)C[C@H](C)C(=O)/C=C(\O)[C@H](C)C[C@H](C)C/C=C/[C@@H](C)[C@@H](O)[C@@H](C)[C@@H](O)C[C@@H]1CC[C@@](C)([C@H]2CC[C@@](C)([C@@H](C)O)O2)O1 [Ionomycin, reference compound] |  |  |  |  | significant increase |  |  |  |  |  |  |  | 
O=C1C=C(NC(=O)c2cccc(OC(F)(F)F)c2)CC(C(F)(F)F)C1 (stereo not shown) [RHB121, N-(3-oxo-5-(trifluoromethyl)cyclohex-1-en-1-yl)-3-(trifluoromethoxy)benzamide] | no effect on cell capacitance | significant reduction |  | do not affect the cell viability; also recorded: no effect on the cell viability |  | does not affect; also recorded: no effect on the Na^+ current densities | does not alter; also recorded: no effect | leftward shift | no significant changes | ~100% | concentration-dependent | complete inhibition; also recorded: significant reduction | still evoked a significant response; also recorded: significant reduction
